# Read-outs that look alike come from different tables or passages of the source.
# Legend:
# serine proteinases = conditions: cited from earlier work
# Source text: A new peptide, HCIQ1c9, with Gly17Arg at position P1’ of the reactive site was also found in a combinatorial library of H. crispa Kunitz-type peptides and produced in E. coli. Thus, in this work four isoforms of Kunitz-type peptides with point a.a. substitutions were studied in various in vitro models.
# Neuro-2a cells [1] = assay: Paraquat-induced ROS formation (H2DCF-DA); format: cell-based, murine; conditions: peptide 0.01 μM, 600 μM paraquat 3 h, means ± SE
# Procedure: Figure 8 Effects of the peptides on intracellular ROS and NO formation. The effects of the peptides on ROS formation into Neuro-2a cells treated by 600 μM paraquat (a) and 10 μM rotenone (b). The effects of peptides on NO formation into the cells treated by 600 μM paraquat (c) and 10 μM rotenone (d). Cells were incubated with peptides for 1 h at 37 °C, then 3 or 1 h with paraquat or rotenone, respectively. The data are shown as the means ± SE; *—p < 0.05, **—p < 0.01, #—p < 0.05 when comparing concentrations of the same peptide.
# Neuro-2a cells were incubated with peptides at concentrations of 0.01, 0.1, and 1 µM for 1 h. Then, paraquat (600 μM) or rotenone (10 µM) was added to each well and cells were incubated for 3 or 1 h, respectively. To study the ROS formation, the 2,7-dichlorodihydrofluorescein diacetate (H2DCF-DA) assay was performed according to the manufacturer’s instructions (Molecular Probes, Eugene, OR, USA). […]
# To determine the NO production, a 4-amino-5-methylamino-2′,7′-difluorofluorescein diacetate (DAF-FM) assay was performed according to the manufacturer’s instructions (Invitrogen, Carlsbad, CA, USA). […] In both cases, the fluorescence intensity was measured using a PHERAstar FS high-speed plate reader (BMG Labtech, Ortenberg, Germany) at λex = 485 nm and λem = 518 nm. […]
# Neuro-2a cells [2] = conditions: cited from earlier work
# Procedure: The peptides were tested for cell viability in in vitro 6-OHDA-, rotenone-, paraquat-, and MPP^+-induced Parkinson’s disease models. All peptides were non-toxic on Neuro-2a cells at a concentrations up to 10 µM (Figure S2). The viability of neurotoxin-treated cells was about 65% versus control (Figure 7).
# trypsin [3] = target: T1, trypsin (Bos taurus, UniProt P00760); assay: Residual trypsin-inhibitory activity after heating; format: biochemical; conditions: all temperature ranges up to 100 °C; 7 μM peptide, 1.2 mM BAPNA, 37 °C, 410 nm, three parallel experiments
# T1 sequence (P00760 24-246): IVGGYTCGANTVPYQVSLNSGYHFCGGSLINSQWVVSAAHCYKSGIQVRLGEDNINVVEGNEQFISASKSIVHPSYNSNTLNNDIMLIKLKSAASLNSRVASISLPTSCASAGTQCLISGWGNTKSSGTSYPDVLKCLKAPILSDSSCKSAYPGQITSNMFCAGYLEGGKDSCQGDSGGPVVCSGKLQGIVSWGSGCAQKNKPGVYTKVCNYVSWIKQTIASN
# Procedure: Figure 6 The effects of temperature on the trypsin-inhibitory activity levels of peptides. Peptides were incubated at the temperatures for 30 min and their residual activities were measured.
# The temperature influence on the activity levels of peptides was assessed by measuring their residual inhibitory activity levels. After preincubation at temperatures ranging from 25 to 100 °C for 25 min, the peptide solutions were added to trypsin solution and the reaction mixtures were incubated for 10 min at 37 °C, then 1.2 mM BAPNA was added, followed by incubation at 37 °C for 30 min. The final concentration of the peptides was 7 μM. Substrate hydrolysis was measured at 410 nm. The residual activity was calculated based on the results of three parallel experiments according to the following equation [60]:% = (1 − residual enzyme activity/enzyme activity without inhibitor) × 100
# trypsin [4] = target: T1, trypsin; conditions: cited from earlier work
# Procedure: As mentioned above, the main function of Kunitz-type peptides is the inhibition of proteases, in particular trypsin. To confirm the bioactive conformation of HCIQ1c9, its ability to inhibit trypsin was determined. […] The decrease in trypsin-inhibitory activity of HCIQ1c9 and HCIQ4c7 in comparison with HCIQ2c1 is probably associated ... || The active spatial conformation of the peptides was also confirmed by the presence of trypsin-inhibitory activity. […] Thus, both negatively and positively charged residues at position P1’ led to decreases in the trypsin-inhibitory activity of the peptides, with HCIQ4c7 beings a stronger trypsin inhibitor than HCIQ1c9. This was due to the residue Glu17, which can make additional contact with ...
substance,measurement,setting,value
"HCIQ2c1: recombinant Kunitz-type peptide from Heteractis crispa, UniProtKB ID A0A6B7FBD3 (IQGNICSEPKKVGRCRGSFPRFYFDSETGKCTPFIYGGCGGNGNNFETLHACRAICRA; UniProt A0A6B7FBD3 28-85, looked up)",interaction with serine proteinases,serine proteinases,"interact with several serine proteinases, including inflammatory ones"
same,decrease in paraquat-induced ROS level,Neuro-2a cells [1],30.7 ± 1.8%
same,increase in viability of 6-OHDA-treated cells,Neuro-2a cells [2],47%
same,protection against 6-OHDA compared with HCIQ4c7,Neuro-2a cells [2],stronger neuroblastoma cell viability against 6-OHDA than HCIQ4c7
same,trypsin-inhibitory activity after heating,trypsin [3],inhibit trypsin completely at all temperature ranges
same,Ki,"trypsin [4]; as shown previously, ref not printed at place, read-out: inhibited trypsin at (order of magnitude)",~10 nM
same,Ki,trypsin [4]; read-out: trypsin inhibitory constant (Ki),52 nM
